{"source": "patent US8613927B2", "about": "“High affinity human antibodies to human nerve growth factor” (Regeneron Pharmaceuticals, Inc., priority 2007, dated 2013)", "key": {"[1]": {"system": "C57BL/6 male mice", "test": "Seltzer model of neuropathic pain, Hargreaves' test", "format": "in vivo, mouse", "from_the_text": "Neuropathic pain. The mouse Seltzer model of neuropathic pain (Malmberg et al. (1998) Pain 76:215-222) was used with C57BL/6 male mice, in which a partial nerve injury was produced by tying a tight ligature with a 7-0 silk suture around approximately ⅓ to ½ the diameter of the sciatic nerve of one single thigh per mouse. Post-surgery, the mice were allowed to recover for at least two days and then they were studied for several weeks post-surgery for thermal hyperalgesia in the Hargreaves' test. Controls were sham-operated mice in which the sciatic nerve was exposed and elevated but not tied. Following surgery, the mice were tested at day […] and at day 7 post-surgery to confirm that the thermal hyperalgesia had developed.\nFollowing the Seltzer surgery, mice were tested at days 5 and 7 post-surgery to confirm that the thermal hyperalgesia had developed."}, "[2]": {"biological_target": "T1, human NT-3 binding to human TrkB-hFc (Homo sapiens, UniProt P20783)", "T1 sequence (P20783 139-257)": "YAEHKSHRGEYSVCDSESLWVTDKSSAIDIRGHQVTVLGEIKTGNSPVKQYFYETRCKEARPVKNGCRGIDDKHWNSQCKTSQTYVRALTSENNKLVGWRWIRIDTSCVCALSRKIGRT", "test": "BIACORE, NT-3 binding to TrkB-hFc surface in presence of antibody", "details": "20 nM NT-3 + 500 nM sample; normalized to IgG1 control", "protocol": "(§1) Human TrkA-hFc (9300 RU), human TrkB-hFc (6000 RU), human TrkC-hFc (9100 RU) and human p75-hFc (7500 RU) were covalently coupled to BIACORE® CM5 chip surfaces by amine-coupling procedure. […] The binding mixture was first incubated at room temperature to reach equilibrium (about 1 hr) and then was injected over the above TrkA-hFc, TrkB-hFc, TrkC-hFc and p75-hFc surfaces. The level of human NT-3 binding in each sample was measured. The binding RU from each sample mixture was normalized according to the RU value from the negative control sample (i.e., 20 nM human NT-3 with 500 nM AVASTIN®) and presented as % binding to Trk surfaces (Table 9)."}, "[3]": {"biological_target": "T2, human NT-3 binding to human TrkA-hFc (Homo sapiens, UniProt P20783)", "T2 sequence (P20783 139-257)": "T1 sequence (P20783 139-257)", "test": "BIACORE, NT-3 binding to TrkA-hFc surface in presence of antibody", "details": "20 nM NT-3 + 500 nM sample; normalized to IgG1 control", "protocol": "as §1"}}, "data": [{"substance": "IgG1 Control: negative binding control, IgG1 control (AVASTIN®; Genentech, CA)", "values": [{"measurement": "mean percent change from Hargreaves baseline", "setting": "[1]; Table 24, injected Day 7, Day 35", "value": "−43.9 ± 6.8", "unit": "%"}, {"measurement": "mean percent change from Hargreaves baseline", "setting": "[1]; Table 24, injected Day 7, Day 42", "value": "−35.0 ± 6.6", "unit": "%"}, {"measurement": "mean percent change from Hargreaves baseline", "setting": "[1]; Table 24, injected Day 14, Day 5 after surgery", "value": "−60.0 ± 4.8", "unit": "%"}, {"measurement": "mean percent change from Hargreaves baseline", "setting": "[1]; Table 24, injected Day 14, Day 7", "value": "−54.4 ± 6.4", "unit": "%"}, {"measurement": "mean percent change from Hargreaves baseline", "setting": "[1]; Table 24, injected Day 14, Day 8", "value": "−55.3 ± 6.1", "unit": "%"}, {"measurement": "mean percent change from Hargreaves baseline", "setting": "[1]; Table 24, injected Day 14, Day 10", "value": "−52.8 ± 7.2", "unit": "%"}, {"measurement": "mean percent change from Hargreaves baseline", "setting": "[1]; Table 24, injected Day 14, Day 14", "value": "−62.1 ± 5.7", "unit": "%"}, {"measurement": "mean percent change from Hargreaves baseline", "setting": "[1]; Table 24, injected Day 14, Day 15", "value": "−63.0 ± 5.8", "unit": "%"}, {"measurement": "mean percent change from Hargreaves baseline", "setting": "[1]; Table 24, injected Day 14, Day 17", "value": "−58.6 ± 5.7", "unit": "%"}, {"measurement": "mean percent change from Hargreaves baseline", "setting": "[1]; Table 24, injected Day 14, Day 21", "value": "−57.1 ± 4.4", "unit": "%"}, {"measurement": "mean percent change from Hargreaves baseline", "setting": "[1]; Table 24, injected Day 14, Day 24", "value": "−49.5 ± 6.6", "unit": "%"}, {"measurement": "mean percent change from Hargreaves baseline", "setting": "[1]; Table 24, injected Day 14, Day 28", "value": "−53.6 ± 5.4", "unit": "%"}, {"measurement": "mean percent change from Hargreaves baseline", "setting": "[1]; Table 24, injected Day 14, Day 32", "value": "−40.9 ± 13.1", "unit": "%"}, {"measurement": "mean percent change from Hargreaves baseline", "setting": "[1]; Table 24, injected Day 14, Day 35", "value": "−42.9 ± 10.3", "unit": "%"}, {"measurement": "mean percent change from Hargreaves baseline", "setting": "[1]; Table 24, injected Day 14, Day 39", "value": "−39.0 ± 11.4", "unit": "%"}, {"measurement": "mean percent change from Hargreaves baseline", "setting": "[1]; Table 24, injected Day 14, Day 42", "value": "−38.1 ± 12.5", "unit": "%"}, {"measurement": "mean percent change from Hargreaves baseline", "setting": "[1]; Table 24, injected Day 21, Day 5 after surgery", "value": "−55.5 ± 5.0", "unit": "%"}, {"measurement": "mean percent change from Hargreaves baseline", "setting": "[1]; Table 24, injected Day 21, Day 7", "value": "−47.2 ± 4.8", "unit": "%"}, {"measurement": "mean percent change from Hargreaves baseline", "setting": "[1]; Table 24, injected Day 21, Day 8", "value": "−47.9 ± 4.7", "unit": "%"}, {"measurement": "mean percent change from Hargreaves baseline", "setting": "[1]; Table 24, injected Day 21, Day 10", "value": "−55.0 ± 6.7", "unit": "%"}, {"measurement": "mean percent change from Hargreaves baseline", "setting": "[1]; Table 24, injected Day 21, Day 14", "value": "−63.8 ± 4.6", "unit": "%"}, {"measurement": "mean percent change from Hargreaves baseline", "setting": "[1]; Table 24, injected Day 21, Day 15", "value": "−54.5 ± 5.0", "unit": "%"}, {"measurement": "mean percent change from Hargreaves baseline", "setting": "[1]; Table 24, injected Day 21, Day 17", "value": "−52.4 ± 5.3", "unit": "%"}, {"measurement": "mean percent change from Hargreaves baseline", "setting": "[1]; Table 24, injected Day 21, Day 21", "value": "−55.8 ± 3.6", "unit": "%"}, {"measurement": "mean percent change from Hargreaves baseline", "setting": "[1]; Table 24, injected Day 21, Day 22", "value": "−50.6 ± 5.3", "unit": "%"}, {"measurement": "mean percent change from Hargreaves baseline", "setting": "[1]; Table 24, injected Day 21, Day 24", "value": "−44.7 ± 5.7", "unit": "%"}, {"measurement": "mean percent change from Hargreaves baseline", "setting": "[1]; Table 24, injected Day 21, Day 28", "value": "−46.0 ± 7.6", "unit": "%"}, {"measurement": "mean percent change from Hargreaves baseline", "setting": "[1]; Table 24, injected Day 21, Day 32", "value": "−32.8 ± 4.8", "unit": "%"}, {"measurement": "mean percent change from Hargreaves baseline", "setting": "[1]; Table 24, injected Day 21, Day 35", "value": "−39.8 ± 4.5", "unit": "%"}, {"measurement": "mean percent change from Hargreaves baseline", "setting": "[1]; Table 24, injected Day 21, Day 39", "value": "−34.6 ± 10.0", "unit": "%"}, {"measurement": "mean percent change from Hargreaves baseline", "setting": "[1]; Table 24, injected Day 21, Day 42", "value": "−33.9 ± 9.9", "unit": "%"}, {"measurement": "mean percent change from Hargreaves baseline", "setting": "[1]; Table 25, 50 mg/kg s.c. at day 7, day 5 after surgery", "value": "−51.2 ± 5.2", "unit": "%"}, {"measurement": "mean percent change from Hargreaves baseline", "setting": "[1]; Table 25, 50 mg/kg s.c. at day 7, day 7", "value": "−47.6 ± 3.9", "unit": "%"}, {"measurement": "mean percent change from Hargreaves baseline", "setting": "[1]; Table 25, 50 mg/kg s.c. at day 7, day 9", "value": "−36.7 ± 14.6", "unit": "%"}, {"measurement": "mean percent change from Hargreaves baseline", "setting": "[1]; Table 25, 50 mg/kg s.c. at day 7, day 12", "value": "−47.2 ± 5.5", "unit": "%"}, {"measurement": "mean percent change from Hargreaves baseline", "setting": "[1]; Table 25, 50 mg/kg s.c. at day 7, day 15", "value": "−46.7 ± 8.5", "unit": "%"}, {"measurement": "mean percent change from Hargreaves baseline", "setting": "[1]; Table 25, 50 mg/kg s.c. at day 7, day 19", "value": "−28.6 ± 7.5", "unit": "%"}, {"measurement": "mean percent change from Hargreaves baseline", "setting": "[1]; Table 25, 50 mg/kg s.c. at day 7, day 22", "value": "−34.9 ± 7.9", "unit": "%"}, {"measurement": "mean percent change from Hargreaves baseline", "setting": "[1]; Table 25, 50 mg/kg s.c. at day 7 post-surgery, Baseline", "value": "0.0 ± 0.0", "unit": "%"}, {"measurement": "mean percent change from Hargreaves baseline", "setting": "[1]; Table 26, 50 mg/kg i.p. at day 7, day 5 after surgery", "value": "−55.5 ± 3.8", "unit": "%"}, {"measurement": "mean percent change from Hargreaves baseline", "setting": "[1]; Table 26, 50 mg/kg i.p. at day 7, day 7", "value": "−61.6 ± 1.8", "unit": "%"}, {"measurement": "mean percent change from Hargreaves baseline", "setting": "[1]; Table 26, 50 mg/kg i.p. at day 7, day 8", "value": "−59.3 ± 4.0", "unit": "%"}, {"measurement": "mean percent change from Hargreaves baseline", "setting": "[1]; Table 26, 50 mg/kg i.p. at day 7, day 9", "value": "−51.0 ± 4.2", "unit": "%"}, {"measurement": "mean percent change from Hargreaves baseline", "setting": "[1]; Table 26, 50 mg/kg i.p. at day 7, day 12", "value": "−46.5 ± 6.3", "unit": "%"}, {"measurement": "mean percent change from Hargreaves baseline", "setting": "[1]; Table 26, 50 mg/kg i.p. at day 7, day 15", "value": "−43.3 ± 6.6", "unit": "%"}, {"measurement": "mean percent change from Hargreaves baseline", "setting": "[1]; Table 26, 50 mg/kg i.p. at day 7 post-surgery, Baseline", "value": "0.0 ± 0.0", "unit": "%"}, {"measurement": "% binding to TrkB-hFc surface", "setting": "[2]", "value": 100, "unit": "%"}, {"measurement": "% binding to TrkA-hFc surface", "setting": "[3]", "value": 100, "unit": "%"}]}]}
